# According to patent publication US7612211B2, “Benzimidazole TRPV1 inhibitors” (Janssen Pharmaceutica N.V., priority 2006, dated 2009):
# Molecular target: T1, hTRPV1 (Homo sapiens, UniProt Q8NER1)
# T1 construct: expressed in transfected cells; host or cells: HEK293
# Experiment: Human TRPV1 (hTRPV1) functional assay, FLIPR intracellular Ca2+, capsaicin challenge
# Assay type: cell-based
# Conditions: HEK293 cells expressing hTRPV1, capsaicin 0.030 μM challenge; for inhibition at 0.2 µM: test concentration of 0.2 μm, read-out: percent inhibition (symbol b); for IC50: derived from a variety of test concentrations, read-out: IC50 value (symbol c)
# Description: The functional activity of the test compounds was determined by measuring changes in intracellular calcium concentration using a Ca^++-sensitive fluorescent dye and FLIPR™ technology. Increases in Ca^++ concentration were readily detected upon challenge with capsaicin.
# HEK293 cells expressing hTRPV1 were grown on poly-D-lysine coated 384 well black-walled plates (BD 354663) and 1 day later loaded with Calcium 3 Dye for 35 min at 37° C., 5% CO2 and then for 25 min at room temperature, and subsequently tested for agonist-induced increases in intracellular Ca^2+ levels using FLIPR™ technology. Cells were challenged with test compounds (at varying concentrations) and intracellular Ca^2+ was measured for 5 min prior to the addition of capsaicin to all wells to achieve a final concentration of 0.030 μM eliciting ˜80% maximal response.
# EC50 or IC50 values were determined from concentration-response studies, which were generated using the average of quadruplicate wells for each data point. The symbol “a” represents percent inhibition obtained at a test concentration of 0.5 μm; the symbol “b” represents percent inhibition obtained at a test concentration of 0.2 μm; the symbol “c” represents an IC50 value (nM) derived from a variety of test concentrations. The term “NA” means that the result is not applicable for a particular compound.
# T1 sequence (Q8NER1 whole entry): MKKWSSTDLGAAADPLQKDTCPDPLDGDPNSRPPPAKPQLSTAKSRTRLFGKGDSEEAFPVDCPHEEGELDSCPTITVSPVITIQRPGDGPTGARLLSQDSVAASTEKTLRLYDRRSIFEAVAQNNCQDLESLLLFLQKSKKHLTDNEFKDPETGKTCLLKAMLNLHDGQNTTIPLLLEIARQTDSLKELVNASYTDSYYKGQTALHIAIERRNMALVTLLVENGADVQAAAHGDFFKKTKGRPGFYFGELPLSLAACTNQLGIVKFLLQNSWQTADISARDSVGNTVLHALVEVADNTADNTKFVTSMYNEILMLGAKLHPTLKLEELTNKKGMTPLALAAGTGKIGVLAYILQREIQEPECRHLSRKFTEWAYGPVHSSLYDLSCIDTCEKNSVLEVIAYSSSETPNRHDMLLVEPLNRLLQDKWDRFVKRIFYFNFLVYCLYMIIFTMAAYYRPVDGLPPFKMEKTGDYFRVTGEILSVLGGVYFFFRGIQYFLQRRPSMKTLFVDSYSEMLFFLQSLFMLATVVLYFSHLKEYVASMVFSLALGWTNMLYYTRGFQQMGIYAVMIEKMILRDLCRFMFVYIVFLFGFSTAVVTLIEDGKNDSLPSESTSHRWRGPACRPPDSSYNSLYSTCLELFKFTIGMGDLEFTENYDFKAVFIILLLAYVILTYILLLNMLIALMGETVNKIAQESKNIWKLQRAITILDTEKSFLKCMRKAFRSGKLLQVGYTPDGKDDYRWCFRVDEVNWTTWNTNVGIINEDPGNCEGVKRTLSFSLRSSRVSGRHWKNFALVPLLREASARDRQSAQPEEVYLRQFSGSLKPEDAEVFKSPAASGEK
SMILES,inhibition at 0.2 µM,IC50
"CS(=O)(=O)c1ccccc1-c1ccc2[nH]c(COc3cc(F)c(F)cc3F)nc2c1 [Cpd 69, 5-(2-methanesulfonyl-phenyl)-2-(2,4,5-trifluoro-phenoxymethyl)-1H-benzoimidazole]",21%,
"CS(=O)(=O)c1ccccc1-c1ccc2[nH]c(COc3ccc(F)c(F)c3F)nc2c1 [Cpd 70, 5-(2-methanesulfonyl-phenyl)-2-(2,3,4-trifluoro-phenoxymethyl)-1H-benzoimidazole]",33%,
"CS(=O)(=O)c1ccccc1-c1ccc2[nH]c(COc3cccc(C(F)(F)F)c3F)nc2c1 [Cpd 71, 2-(2-fluoro-3-trifluoromethyl-phenoxymethyl)-5-(2-methanesulfonyl-phenyl)-1H-benzoimidazole]",43%,
"CS(=O)(=O)c1ccccc1-c1ccc2[nH]c(COc3ccc(F)c(C(F)(F)F)c3)nc2c1 [Cpd 72, 2-(4-fluoro-3-trifluoromethyl-phenoxymethyl)-5-(2-methanesulfonyl-phenyl)-1H-benzoimidazole]",96%,30 nM
"CS(=O)(=O)c1ccccc1-c1ccc2[nH]c(COc3cc(C(F)(F)F)cc(C(F)(F)F)c3)nc2c1 [Cpd 73, 2-(3,5-bis-trifluoromethyl-phenoxymethyl)-5-(2-methanesulfonyl-phenyl)-1H-benzoimidazole]",33%,
"CS(=O)(=O)c1ccccc1-c1ccc2[nH]c(COc3ccccc3C(F)(F)F)nc2c1 [Cpd 74, 5-(2-methanesulfonyl-phenyl)-2-(2-trifluoromethyl-phenoxymethyl)-1H-benzoimidazole]",60%,
"CS(=O)(=O)c1ccccc1-c1ccc2[nH]c(COc3cccc(C(F)(F)F)c3)nc2c1 [Cpd 75, 5-(2-methanesulfonyl-phenyl)-2-(3-trifluoromethyl-phenoxymethyl)-1H-benzoimidazole]",93%,68 nM
"Cc1ccc(OCc2nc3cc(-c4ccccc4S(C)(=O)=O)ccc3[nH]2)cc1 [Cpd 76, 5-(2-methanesulfonyl-phenyl)-2-p-tolyloxymethyl-1H-benzoimidazole]",96%,31 nM
"CC(C)c1ccc(OCc2nc3cc(-c4ccccc4S(C)(=O)=O)ccc3[nH]2)cc1 [Cpd 77, 2-(4-isopropyl-phenoxymethyl)-5-(2-methanesulfonyl-phenyl)-1H-benzoimidazole]",100%,3 nM
"CC(C)(C)c1ccc(OCc2nc3cc(-c4ccccc4S(C)(=O)=O)ccc3[nH]2)cc1 [Cpd 78, 2-(4-tert-butyl-phenoxymethyl)-5-(2-methanesulfonyl-phenyl)-1H-benzoimidazole]",98%,3 nM
"CC(=O)c1ccc(OCc2nc3cc(-c4ccccc4S(C)(=O)=O)ccc3[nH]2)cc1 [Cpd 79, 1-{4-[5-(2-methanesulfonyl-phenyl)-1H-benzoimidazol-2-ylmethoxy]-phenyl}-ethanone]",61%,
"CS(=O)(=O)c1ccccc1-c1ccc2[nH]c(COc3ccc4ccccc4c3)nc2c1 [Cpd 80, 5-(2-methanesulfonyl-phenyl)-2-(naphthalen-2-yloxymethyl)-1H-benzoimidazole]",99%,14 nM
"CCOc1ccc(OCc2nc3cc(-c4ccccc4S(C)(=O)=O)ccc3[nH]2)cc1 [Cpd 81, 2-(4-ethoxy-phenoxymethyl)-5-(2-methanesulfonyl-phenyl)-1H-benzoimidazole]",96%,85 nM
"CS(=O)(=O)c1ccccc1-c1ccc2[nH]c(COc3ccc(SC(F)(F)F)cc3)nc2c1 [Cpd 82, 5-(2-methanesulfonyl-phenyl)-2-(4-trifluoromethanesulfide-phenoxymethyl)-1H-benzoimidazole]",99%,7 nM
"CS(=O)(=O)c1ccccc1-c1ccc2[nH]c(COc3ccc(C#N)cc3)nc2c1 [Cpd 83, 4-[5-(2-methanesulfonyl-phenyl)-1H-benzoimidazol-2-ylmethoxy]-benzonitrile]",51%,
"CS(=O)(=O)c1ccc(OCc2nc3cc(-c4ccccc4S(C)(=O)=O)ccc3[nH]2)cc1 [Cpd 85, 2-(4-methanesulfonyl-phenoxymethyl)-5-(2-methanesulfonyl-phenyl)-1H-benzoimidazole]",12%,
"CS(=O)(=O)c1ccccc1-c1ccc2[nH]c(COc3ccc4c(c3)CCCC4)nc2c1 [Cpd 87, 5-(2-methanesulfonyl-phenyl)-2-(5,6,7,8-tetrahydro-naphthalen-2-yloxymethyl)-1H-benzoimidazole]",96%,14 nM
"COC(=O)CCc1ccc(OCc2nc3cc(-c4ccccc4S(C)(=O)=O)ccc3[nH]2)cc1 [Cpd 88, 3-{4-[5-(2-methanesulfonyl-phenyl)-1H-benzoimidazol-2-ylmethoxy]-phenyl}-propionic acid methyl ester]",36%,
"Cc1ccc(OCc2nc3cc(-c4ccccc4S(C)(=O)=O)ccc3[nH]2)c(C)c1 [Cpd 89, 2-(2,4-dimethyl-phenoxymethyl)-5-(2-methanesulfonyl-phenyl)-1H-benzoimidazole]",90%,52 nM
"Cc1cc(C)cc(OCc2nc3cc(-c4ccccc4S(C)(=O)=O)ccc3[nH]2)c1 [Cpd 90, 2-(3,5-dimethyl-phenoxymethyl)-5-(2-methanesulfonyl-phenyl)-1H-benzoimidazole]",31%,
"CS(=O)(=O)c1ccccc1-c1ccc2[nH]c(COc3ccc4c(c3)CCC4)nc2c1 [Cpd 91, 2-(indan-5-yloxymethyl)-5-(2-methanesulfonyl-phenyl)-1H-benzoimidazole]",99%,21 nM
"CS(=O)(=O)c1ccccc1-c1ccc2[nH]c(COc3ccc4c(c3)OCO4)nc2c1 [Cpd 92, 2-(benzo[1,3]dioxol-5-yloxymethyl)-5-(2-methanesulfonyl-phenyl)-1H-benzoimidazole]",76%,86 nM
"CS(=O)(=O)c1ccccc1-c1ccc2[nH]c(COc3cc(Cl)cc(Cl)c3)nc2c1 [Cpd 93, 2-(3,5-dichloro-phenoxymethyl)-5-(2-methanesulfonyl-phenyl)-1H-benzoimidazole]",11%,
"CC(=O)Nc1cccc(OCc2nc3cc(-c4ccccc4S(C)(=O)=O)ccc3[nH]2)c1 [Cpd 94, N-{3-[5-(2-methanesulfonyl-phenyl)-1H-benzoimidazol-2-ylmethoxy]-phenyl}-acetamide]",1%,
"CC(=O)Nc1ccc(OCc2nc3cc(-c4ccccc4S(C)(=O)=O)ccc3[nH]2)cc1 [Cpd 95, N-{4-[5-(2-methanesulfonyl-phenyl)-1H-benzoimidazol-2-ylmethoxy]-phenyl}-acetamide]",1%,
"COc1ccc(OCc2nc3cc(-c4ccccc4S(C)(=O)=O)ccc3[nH]2)cc1 [Cpd 96, 5-(2-methanesulfonyl-phenyl)-2-(4-methoxy-phenoxymethyl)-1H-benzoimidazole]",6%,
"COc1cccc(OCc2nc3cc(-c4ccccc4S(C)(=O)=O)ccc3[nH]2)c1 [Cpd 97, 5-(2-methanesulfonyl-phenyl)-2-(3-methoxy-phenoxymethyl)-1H-benzoimidazole]",42%,
